Source: patent US20100130736A1, “METHODS OF CREATING AN INDEX” (priority 2008, published 2010)
Where two headings read alike, the source gives them in different places.

Tests used:
Type in all cases: cell-based, human
quiescent A431 cells [1] = test: Epic label-free DMR two-step assay, antagonist mode: modulation of marker-induced DMR signals in quiescent A431 cells
Experimental: (§1) Cells were typically grown using ˜1 to 2×10^4 cells per well at passage 3 to 15 suspended in 50 μl of the corresponding culture medium in the biosensor microplate, and were cultured at 37° C. under air/5% CO2 for ˜1 day. Except for A431, which was subject to ˜20 hr starvation through continuous culture in the serum-free DMEM, the other cell types were directly assayed without starvation. The confluency for all cells at the time of assays was ˜95% to 100%.
(§2) Epic® wavelength interrogation system (Corning Inc., Corning, N.Y.) was used for whole cell sensing. This system consists of a temperature-control unit, an optical detection unit, and an on-board liquid handling unit with robotics. The detection unit is centered on integrated fiber optics, and enables kinetic measures of cellular responses with a time interval of ±15 sec.
(§3) For biosensor cellular assays, molecule solutions were made by diluting the stored concentrated solutions with the HBSS (1× Hanks balanced salt solution, plus 20 mM Hepes, pH 7.1), and transferred into a 384 well polypropylene molecule storage plate to prepare a molecule source plate. Both molecule and marker source plates were made separately when a two-step assay was performed. In parallel, the cells were washed twice with the HBSS and maintained in 30 μl of the HBSS to prepare a cell assay plate. Both the cell assay plate and the molecule and marker source plate(s) were then incubated in the hotel of the reader system. After ˜1 hr of incubation the baseline wavelengths of all biosensors in the cell assay microplate were recorded and normalized to zero. Afterwards, a 2 to 10 minute continuous recording was carried out to establish a baseline, and to ensure that the cells reached a steady state. Cellular responses were then triggered by pipetting 10 μl of the marker solutions into the cell assay plate using the on-board liquid handler.
To study the influence of molecules on a marker-induced response, a second stimulation with the marker at a fixed dose (typically at EC80 or EC100) was applied. The resonant wavelengths of all biosensors in the microplate were normalized again to establish a second baseline, right before the second stimulation. The two stimulations were usually separated by ˜1 hr. All studies were carried out at a controlled temperature (28° C.). At least two independent sets of experiments, each with at least three replicates, were performed. […]
A first panel of markers was contacted with quiescent A431 cells at concentrations close to each of the marker's EC80 or EC100, and DMR measurements were obtained with and EPIC® system. This panel of markers was selected from a library of markers identified in A431 cells using Epic® cellular assays. This panel included epidermal growth factor (EGF), epinephrine, nicotinic acid, and histamine. Each of these markers leads to a wide array of cell signaling. […] Each DMR signal represents an averaged response of 4 replicates.

A549 cells [2] = test: Epic label-free DMR two-step assay, antagonist mode: modulation of marker-induced DMR signals in A549 cells
Experimental: as §1, §2, §3
To study the influence of molecules on a marker-induced response, a second stimulation with the marker at a fixed dose (typically at EC80 or EC100) was applied. The resonant wavelengths of all biosensors in the microplate were normalized again to establish a second baseline, right before the second stimulation. The two stimulations were usually separated by ˜1 hr. All studies were carried out at a controlled temperature (28° C.). At least two independent sets of experiments, each with at least three replicates, were performed.
A second panel of markers was contacted with A549 cells at concentrations close to each of the marker's EC80 or EC100, and DMR measurements were obtained with and EPIC® system. This panel included poly(I:C), SLIGKV-amide, pinacidil, PMA, histamine, and forskolin. Each of these markers also leads to a wide array of cell signaling. Using Epic® cellular assays in conjunction with chemical biology and cell biology approach similar to the EGFR DMR mentioned above, we have determined the pathway(s) and network interaction(s) that is accounted for each marker-induced DMR signal in A549 cells. The main observations are summarized below. Poly(I:C) is an agonist for endogenous Toll-like receptor(s) in A549, whose activation leads to IKK pathway and AKT pathway. SLIGKV-amide is an agonist for endogenous protease activated receptor subtype 2 (PAR2) in A549, whose activation leads to Gq-, Gi- and G12/13-mediated signaling. Pinacidil is an opener for endogenous ATP-sensitive potassium (KATP) ion channel in A549, whose activation leads to Rho- and JAK-mediated signaling. PMA is an activator for protein kinase C (PKC), whose activation leads to PKC pathway and degranulation. Histamine is a natural agonist for endogenous histamine receptors (dominantly H1R, and possibly H3R), whose activation leads to dual signaling, possibly through Gq and Gi mediated signaling in A549. Forskolin is an activator for adenylyl cyclases, whose activation leads to cAMP-PKA pathway in A549. […] Each DMR signal represents an averaged response of 4 replicates. […]

A549 cells [3] = test: Epic DMR agonist mode (primary profile, target panning) in A549 cells; settings: A549; 10 μM; about 1 hr
Source text: as §2, §3
First, a panel of ligands targeting GPCRs, each at 10 μM concentration, was chosen, and examined their actions on the A549 cells using DMR measurements with the Epic® system. The ligand panel included the four P2Y agonists ADP, […], UTP and UDP, the adenosine receptor agonist adenosine, the calcium sensing receptor agonist spermine, the histamine receptor agonist histamine, the adrenergic receptor agonist epinephrine, the free fatty acid receptor agonist elaidic acid, the lipoxin receptor agonist lipoxin A4, the bradykinin receptor agonist bradykinin, the adrenodullin receptor agonist adrenodullin, the PAR1 agonist SFLLR-amide, the angiotensin receptor agonist angiotensin, the neuropeptide Y receptor agonist neuropeptide Y, and the PAR2 agonist SLIGKV-amide.
Next, a second ligand panel was chosen, and examined their actions on the A549 cells using DMR measures with the Epic® system. The panel included the protein kinase C activator PMA, the endogenous KATP ion channel activator pinacidil, the adenylyl cyclase activator forskolin, and endogenous Toll-like receptor (TLR) activator poly(I:C).
A DMR index was generated for four ligand molecules. Quiescent A431 and proliferating A549 cells were separately exposed to the ligand molecules for about 1 hr to generate their primary profiles, followed by stimulation with each marker at a fixed concentration (as mentioned in FIGS. 7 and 8) for another 1 hr or so to generate secondary profiles of the molecule against the panels of markers in both types of cells. Next, one or more specific DMR parameters were chosen as a readout for plotting the DMR index of the molecule. For the pinacidil DMR response in A549, the amplitude of the N-DMR (i.e., the amplitude 30 min after stimulation) was chosen. For the poly(I:C) DMR response in A549, the amplitude of the late DMR (i.e., the amplitude 50 min after stimulation) was chosen. For the PMA response in A549, the late DMR amplitude (i.e., the amplitude 50 min after stimulation) was chosen. For the SLIGKV-amide DMR response in A549, the P-DMR amplitude (i.e., the amplitude 20 min after stimulation) was chosen. For the forskolin response in A549 cells, the P-DMR amplitude (i.e., the amplitude 50 min after stimulation) was chosen. For the histamine response in A549, both the early DMR amplitude (i.e., amplitude 10 min after stimulation) and the late response (i.e., the amplitude 30 min after stimulation) were chosen. For the epinephrine response in A431, the P-DMR amplitude (i.e., the amplitude 50 min after stimulation) was chosen.

quiescent A431 cells [4] = test: Epic DMR agonist mode (primary profile) in quiescent A431 cells
Source text: as §2, §3
A DMR index was generated for four ligand molecules. Quiescent A431 and proliferating A549 cells were separately exposed to the ligand molecules for about 1 hr to generate their primary profiles, followed by stimulation with each marker at a fixed concentration (as mentioned in FIGS. 7 and 8) for another 1 hr or so to generate secondary profiles of the molecule against the panels of markers in both types of cells. Next, one or more specific DMR parameters were chosen as a readout for plotting the DMR index of the molecule. For the pinacidil DMR response in A549, the amplitude of the N-DMR (i.e., the amplitude 30 min after stimulation) was chosen. […]

[5] = quiescent A431, 32 nM EGF, ligand 10 μM, about 1 hr pretreatment
[6] = 10 μM, score scaled from percent modulation (10% = 1)
[7] = A431, ~1 hr pretreatment with the molecule
[8] = quiescent A431, 10 μM, score scaled from percent modulation (10% = 1)
[9] = ~1 hr pretreatment with the molecule

COc1cc2ncnc(Nc3cccc(Cl)c3)c2cc1OC [AG1478]
effect on the EGF response / DMR signal induced by EGF (in words) (quiescent A431 cells [1]; [5]): almost completely blocked

C#Cc1cccc(Nc2ncnc3cc(OC)c(OC)cc23)c1 [BML-265]
effect on the EGF response / DMR signal induced by EGF (in words) (quiescent A431 cells [1]; [5]): almost completely blocked

CNCCNS(=O)(=O)c1cccc2cnccc12 [H-8]
modulation index score, PMA (A549 cells [2]; [6]): 2.2
modulation index score, SLIGKV-amide (A549 cells [2]; [6]): 3.2
modulation index score, forskolin (A549 cells [2]; [6]): 2
modulation index score, histamine (early P-DMR) (A549 cells [2]; [6]): 3.8
modulation index score, histamine (late P-DMR) (A549 cells [2]; [6]): 6.5
modulation index score, pinacidil (A549 cells [2]; [6]): −7.2
modulation index score, poly(I:C) (A549 cells [2]; [6]): 1.8
effect on the epinephrine response (in words) (quiescent A431 cells [1]; [7]): less effective at attenuating
effect on the histamine response (in words) (quiescent A431 cells [1]; [7]): less effective at attenuating
modulation index score, EGF (N-DMR) (quiescent A431 cells [1]; [8]): −2
modulation index score, EGF (P-DMR) (quiescent A431 cells [1]; [8]): 0.3
modulation index score, epinephrine (quiescent A431 cells [1]; [8]): −1.6
modulation index score, histamine (quiescent A431 cells [1]; [8]): 1.6
modulation index score, nicotinic acid (quiescent A431 cells [1]; [8]): 1

O=S(=O)(c1cccc2cnccc12)N1CCCNCC1 [HA1077]
modulation of the PMA-induced DMR response (A549 cells [2]; molecule 10 μM, 8 μM PMA, late DMR amplitude 50 min after stimulation): +36%
modulation of the SLIGKV-amide-induced DMR response (A549 cells [2]; molecule 10 μM, 8 μM SLIGKV-amide, P-DMR amplitude 20 min after stimulation): +22%
modulation of the histamine-induced DMR response (early P-DMR) (A549 cells [2]; molecule 10 μM, 10 μM histamine, amplitude 10 min after stimulation): +26%
modulation of the histamine-induced DMR response (late P-DMR) (A549 cells [2]; molecule 10 μM, 10 μM histamine, amplitude 30 min after stimulation): +55%
modulation of the forskolin-induced DMR response (A549 cells [2]; molecule 10 μM, 16 μM forskolin, P-DMR amplitude 50 min after stimulation): +18%
modulation of the poly(I:C)-induced DMR response (A549 cells [2]; molecule 10 μM, 250 μg/ml poly(I:C), late DMR amplitude 50 min after stimulation): +18%
effect on the PMA response (in words) (A549 cells [2]; [9]): significantly potentiated
effect on the histamine response (in words) (A549 cells [2]; [9]): significantly potentiated
effect on the pinacidil response (in words) (A549 cells [2]; [9]): almost completely attenuated
primary profile of the molecule (DMR signal triggered) (A549 cells [3]): N-DMR signal

N#CC(=C(/N)Sc1ccccc1N)/C(C#N)=C(\N)Sc1ccccc1N [U0126]
effect on the N-DMR of the EGF DMR signal (in words) (quiescent A431 cells [1]): significantly and selectively attenuated
effect on the RP-DMR of the EGF DMR signal (in words) (quiescent A431 cells [1]): significantly and selectively attenuated

CC(=O)c1c(O)c(C)c(O)c(Cc2c(O)c3c(c(C(=O)/C=C/c4ccccc4)c2O)OC(C)(C)C=C3)c1O [rottlerin]
effect on the N-DMR of the EGF DMR signal (in words) (quiescent A431 cells [1]; [5]): part of the early N-DMR event
effect on the early P-DMR event of the EGF DMR signal (in words) (quiescent A431 cells [1]; [5]): specifically caused the truncation

EGF: natural agonist for endogenous EGF receptor in A431
EC80 to trigger the DMR signal (quiescent A431 cells [4]; fully quiescent A431 cells): ~32 nM
DMR signal triggered (quiescent A431 cells [4]; fully quiescent A431 cells, EGF ~32 nM, three phases P-DMR, N-DMR, RP-DMR, FIG. 4): distinct and robust DMR signal
DMR response as a function of dose (quiescent A431 cells [4]; quiescent A431 cells, data not shown): dose-dependent response
